# Molecular target: full-length human recombinant BTK (Homo sapiens (Human), UniProt Q06187)
# Assay: Inhibition of Btk enzymatic activity (biochemical enzyme assay, Caliper)
# Details: 30° C., 60 minutes
# Procedure: The inhibitory activity of the present compounds against Btk was assessed in a biochemical enzyme assay. Assay plates in 384 well format were prepared with 8-point serial dilutions for the test compounds on a Thermo CatX workstation equipped with a Innovadyne Nanodrop Express. The assay plates were prepared by addition of 50 nl per well of compound solution in 90% DMSO. The kinase reactions were started by stepwise addition of 4.5 μl per well of peptide/ATP-solution (4 μM FITC-Ahx-[…]-NH2, 164 μM ATP) in kinase buffer (50 mM HEPES, pH 7.5, 1 mM DTT, 0.02% Tween20, 0.02% BSA, 0.6% DMSO, 10 mM beta-glycerophosphate, and 10 μM sodium orthovanadate, 18 mM MgCl2, 1 mM MnCl2) and 4.5 μl per well of enzyme solution (6.4 nM full-length human recombinant BTK) in kinase buffer. Kinase reactions were incubated at 30° C. for 60 minutes and subsequently terminated by addition of 16 μl per well of stop solution (100 mM HEPES pH 7.5, 5% DMSO, 0.1% Caliper coating reagent, 10 mM EDTA, and 0.015% Brij35). Kinase reactions were analyzed on a Caliper LC3000 workstation by separating phosphorylated and unphosphorylated peptides and kinase activities were calculated from the amounts of newly formed phospho-peptide. Inhibition data were calculated by comparison to control reactions without enzyme (100% inhibition) and without inhibitors (0% inhibition). The concentration of inhibitor required for 50% inhibition (IC50) was calculated from the inhibition in response to inhibitor concentrations.
# full-length human recombinant BTK, sequence (Q06187 whole entry): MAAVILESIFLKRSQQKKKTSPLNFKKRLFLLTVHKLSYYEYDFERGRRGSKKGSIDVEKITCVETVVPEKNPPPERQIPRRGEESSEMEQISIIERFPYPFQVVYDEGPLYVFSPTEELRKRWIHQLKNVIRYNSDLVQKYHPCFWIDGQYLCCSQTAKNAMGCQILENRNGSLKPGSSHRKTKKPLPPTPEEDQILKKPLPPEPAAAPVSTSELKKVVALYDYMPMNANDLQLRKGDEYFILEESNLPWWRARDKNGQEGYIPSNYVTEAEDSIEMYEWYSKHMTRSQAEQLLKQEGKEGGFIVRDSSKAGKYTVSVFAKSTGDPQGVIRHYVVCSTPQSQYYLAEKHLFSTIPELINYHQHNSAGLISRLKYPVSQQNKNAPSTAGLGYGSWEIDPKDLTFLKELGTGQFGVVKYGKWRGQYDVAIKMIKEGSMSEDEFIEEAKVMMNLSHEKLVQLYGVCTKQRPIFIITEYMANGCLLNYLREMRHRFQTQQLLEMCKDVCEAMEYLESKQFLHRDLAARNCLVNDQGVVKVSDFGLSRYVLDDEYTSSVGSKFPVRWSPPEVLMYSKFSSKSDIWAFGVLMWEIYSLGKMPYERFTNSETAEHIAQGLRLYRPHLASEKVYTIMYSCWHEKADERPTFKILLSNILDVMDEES
row,SMILES,IC50 [nM]
1,"Cc1c(NC(=O)c2ccc(C3(C(F)(F)F)CC3)cc2)cc(F)cc1-c1ncnc2[nH]c(C3=CCN(C(=O)N(C)C)CC3)cc12 [Example 9, 4-(4-{5-Fluoro-2-methyl-3-[4-(1-trifluoromethyl-cyclopropyl)-benzoylamino]-phenyl}-7H-pyrrolo[2,3-d]pyrimidin-6-yl)-3,6-dihydro-2H-pyridine-1-carboxylic acid dimethylamide]",5
2,"CC(=O)c1ccc(C(=O)Nc2cc(F)cc(-c3ncnc4[nH]c(C5=CCN(C(=O)N(C)C)CC5)cc34)c2C)cc1 [Example 19, 4-{4-[3-(4-Acetyl-benzoylamino)-5-fluoro-2-methyl-phenyl]-7H-pyrrolo[2,3-d]pyrimidin-6-yl}-3,6-dihydro-2H-pyridine-1-carboxylic acid dimethylamide]",23
3,"Cc1c(NC(=O)c2ccc(C(C)(C)O)cc2F)cc(F)cc1-c1ncnc2[nH]c(C3=CCOCC3)cc12 [Example 22, N-{3-[6-(3,6-Dihydro-2H-pyran-4-yl)-7H-pyrrolo[2,3-d]pyrimidin-4-yl]-5-fluoro-2-methyl-phenyl}-2-fluoro-4-(1-hydroxy-1-methyl-ethyl)-benzamide]",8
4,"COCC(C)(C)c1ccc(C(=O)Nc2cc(F)cc(-c3ncnc4[nH]c(C5=CCN(C(=O)N(C)C)CC5)cc34)c2C)cc1 [Example 12, 4-(4-{5-Fluoro-3-[4-(2-methoxy-1,1-dimethyl-ethyl)-benzoylamino]-2-methyl-phenyl}-7H-pyrrolo[2,3-d]pyrimidin-6-yl)-3,6-dihydro-2H-pyridine-1-carboxylic acid dimethylamide]",4
5,"Cc1c(NC(=O)c2ccc(C(C)(O)C(F)(F)F)cc2)cc(F)cc1-c1ncnc2[nH]c(C3=CCN(C(=O)N(C)C)CC3)cc12 (centres unmarked) [Example 18, 4-(4-{5-Fluoro-2-methyl-3-[4-(2,2,2-trifluoro-1-hydroxy-1-methyl-ethyl)-benzoylamino]-phenyl}-7H-pyrrolo[2,3-d]pyrimidin-6-yl)-3,6-dihydro-2H-pyridine-1-carboxylic acid dimethylamide]",6
6,"COC(C)(C)c1ccc(C(=O)Nc2cc(F)cc(-c3ncnc4[nH]c(C5=CCN(C(=O)N(C)C)CC5)cc34)c2C)cc1 [Example 13, 4-(4-{5-Fluoro-3-[4-(1-methoxy-1-methyl-ethyl)-benzoylamino]-2-methyl-phenyl}-7H-pyrrolo[2,3-d]pyrimidin-6-yl)-3,6-dihydro-2H-pyridine-1-carboxylic acid dimethylamide]",4
7,"CC(=O)OCC(=O)N1CC=C(c2cc3c(-c4cc(F)cc(NC(=O)c5ccc(S(F)(F)(F)(F)F)cc5)c4C)ncnc3[nH]2)CC1 [Example 35, Acetic acid 2-[4-(4-{5-fluoro-2-methyl-3-[4-(pentafluoro-sulfanyl)-benzoylamino]-phenyl}-7H-pyrrolo[2,3-d]pyrimidin-6-yl)-3,6-dihydro-2H-pyridin-1-yl]-2-oxo-ethyl ester]",14
8,"Cc1c(NC(=O)c2ccc(C(C)(C)C)cc2)cc(F)cc1-c1ncnc2[nH]c(C3=CCNCC3)cc12 [Example 40, 4-tert-Butyl-N-{5-fluoro-2-methyl-3-[6-(1,2,3,6-tetrahydro-pyridin-4-yl)-7H-pyrrolo[2,3-d]pyrimidin-4-yl]-phenyl}-benzamide]",19
9,"Cc1c(NC(=O)c2ccc(OC(C)C)cc2)cc(F)cc1-c1ncnc2[nH]c(C3=CCN(C(=O)N(C)C)CC3)cc12 [Example 10, 4-{4-[5-Fluoro-3-(4-isopropoxy-benzoylamino)-2-methyl-phenyl]-7H-pyrrolo[2,3-d]pyrimidin-6-yl}-3,6-dihydro-2H-pyridine-1-carboxylic acid dimethylamide]",15
10,"Cc1c(NC(=O)c2ccc(C3(F)CC3)cc2)cc(F)cc1-c1ncnc2[nH]c(C3=CCN(C(=O)N(C)C)CC3)cc12 [Example 1, 4-(4-{5-Fluoro-3-[4-(1-fluoro-cyclopropyl)-benzoylamino]-2-methyl-phenyl}-7H-pyrrolo[2′3-d]pyrimidin-6-yl)-3,6-dihydro-2H-pyridine-1-carboxylic acid dimethylamide]",1
11,"CC(C)(O)c1ccc(C(=O)Nc2cccc(-c3ncnc4[nH]c(C5=CCOCC5)cc34)c2CO)c(F)c1 [Example 23, N-{3-[6-(3,6-Dihydro-2H-pyran-4-yl)-7H-pyrrolo[2,3-d]pyrimidin-4-yl]-2-hydroxymethyl-phenyl}-2-fluoro-4-(1-hydroxy-1-methyl-ethyl)-benzamide]",12
12,"Cc1c(NC(=O)c2ccc3ccn(C)c3n2)cc(F)cc1-c1ncnc2[nH]c(C3=CCN(C(=O)N(C)C)CC3)cc12 [Example 14, 1-Methyl-1H-pyrrolo[2,3-b]pyridine-6-carboxylic acid {3-[6-(1-dimethyl-carbamoyl-1,2,3,6-tetrahydro-pyridin-4-yl)-7H-pyrrolo[2,3-d]pyrimidin-4-yl]-5-fluoro-2-methyl-phenyl}-amide]",16
13,"CN(C)C(=O)N1CC=C(c2cc3c(-c4ccc(F)c(NC(=O)c5ccc(C6CC6)cc5)c4)ncnc3[nH]2)CC1 [Example 20, 4-{4-[3-(4-Cyclopropyl-benzoylamino)-4-fluoro-phenyl]-7H-pyrrolo[2,3-d]pyrimidin-6-yl}-3,6-dihydro-2H-pyridine-1-carboxylic acid dimethylamide]",6
14,"Cc1c(NC(=O)c2ccc(C(C)(C)C)cc2)cc(F)cc1-c1ncnc2[nH]c(C3=CC[S+]([O-])CC3)cc12 (centres unmarked) [Example 25, 4-tert-Butyl-N-{5-fluoro-2-methyl-3-[6-(3,6-dihydro-1-oxido-2H-thiopyran-4-yl)-7H-pyrrolo[2,3-d]pyrimidin-4-yl]-phenyl}-benzamide]",2
15,"Cc1c(NC(=O)N2CC(OC(C)(C)C)C2)cc(F)cc1-c1ncnc2[nH]c(C3=CCN(C(=O)N(C)C)CC3)cc12 [Example 57, 4-(4-{3-[(3-tert-Butoxy-azetidine-1-carbonyl)-amino]-5-fluoro-2-methyl-phenyl}-7H-pyrrolo[2,3-d]pyrimidin-6-yl)-3,6-dihydro-2H-pyridine-1-carboxylic acid dimethylamide]",7

# Further lines, results first:
row,IC50 [nM],SMILES
1,99,"Cc1c(NC(=O)c2ccc(C(C)(C)C)cc2)cc(F)cc1-c1ncnc2[nH]c(C3=CCOCC3)cc12 [Example 49, 4-tert-Butyl-N-{3-[6-(3,6-dihydro-2H-pyran-4-yl)-7H-pyrrolo[2,3-d]pyrimidin-4-yl]-5-fluoro-2-methyl-phenyl}-benzamide]"
2,8,"CN(C)C(=O)N1CC=C(c2cc3c(-c4cccc(N5CCc6cc(C(C)(C)C)ccc6C5=O)c4CO)ncnc3[nH]2)CC1 [Example 45, 4-{4-[3-(6-tert-Butyl-1-oxo-3,4-dihydro-1H-isoquinolin-2-yl)-2-hydroxymethyl-phenyl]-7H-pyrrolo[2,3-d]pyrimidin-6-yl}-3,6-dihydro-2H-pyridine-1-carboxylic acid dimethylamide]"
3,140,"Cc1c(NC(=O)c2ccc(C(C)(C)C)cc2)cc(F)cc1-c1ncnc2[nH]c(C3=CCN(S(=O)(=O)N(C)C)CC3)cc12 [Example 43, 4-tert-Butyl-N-{3-[6 (1 dimethylsulfamoyl-1,2,3,6-tetrahydro-pyridin-4-yl)-7H-pyrrolo[2,3-d]pyrimidin-4-yl]-5-fluoro-2-methyl-phenyl}-benzamide]"
4,12,"Cc1c(NC(=O)c2ccc(C(C)(C)C)cc2)cccc1-c1ncnc2[nH]c(C3=CCC(O)CC3)cc12 (centres unmarked) [Example 66, 4-tert-Butyl-N-{3-[6 (4 hydroxy-cyclohex-1-enyl)-7H-pyrrolo[2,3-d]pyrimidin-4-yl]-2-methyl-phenyl}-benzamide]"
5,47,"Cc1c(NC(=O)c2ccc(N(C)C)cc2)cc(F)cc1-c1ncnc2[nH]c(C3=CCOCC3)cc12 [Example 50, N-{3-[6-(3,6-Dihydro-2H-pyran-4-yl)-7H-pyrrolo[2,3-d]pyrimidin-4-yl]-5-fluoro-2-methyl-phenyl}-4-dimethylamino-benzamide]"
6,8,"Cc1c(NC(=O)N2CC(OC(C(F)(F)F)C(F)(F)F)C2)cc(F)cc1-c1ncnc2[nH]c(C3=CCN(C(=O)N(C)C)CC3)cc12 [Example 60, 4-[4-(5-Fluoro-2-methyl-3-{[3-(2,2,2-trifluoro-1-trifluoromethyl-ethoxy)-azetidine-1-carbonyl]-amino}-phenyl)-7H-pyrrolo[2,3-d]pyrimidin-6-yl]-3,6-dihydro-2H-pyridine-1-carboxylic acid dimethylamide]"
7,47,"Cc1c(NC(=O)c2ccc(C(C)(C)C)cc2)cccc1-c1ncnc2[nH]c(C3=CCSCC3)cc12 [Example 51, 4-tert-Butyl-N-{3-[6-(3,6-dihydro-2H-thiopyran-4-yl)-7H-pyrrolo[2,3-d]pyrimidin-4-yl]-2-methyl-phenyl}-benzamide]"
8,2,"CN(C)C(=O)N1CC=C(c2cc3c(-c4cccc(N5CCc6cc(C(C)(C)O)ccc6C5=O)c4CO)ncnc3[nH]2)CC1 [Example 47, 4-(4-{2-Hydroxymethyl-3-[6-(1-hydroxy-1-methyl-ethyl)-1-oxo-3,4-dihydro-1H-isoquinolin-2-yl]-phenyl}-7H-pyrrolo[2,3-d]pyrimidin-6-yl)-3,6-dihydro-2H-pyridine-1-carboxylic acid dimethylamide]"

# — patent US9233111B2, “Pyrrolo pyrimidine derivatives” (NOVARTIS AG, priority 2011, dated 2016)
